From patent US12655150B2 (Cedilla Therapeutics, Inc., priority 2021, dated 2026)

test system: NCI-H226; test: 72H TEAD Proliferation Assay (Cell Titer Glo 2.0); type: cell-based; conditions: CTG 2.0, cell line not given (NCI-H226 responsive, NCI-H28 non-responsive)
Procedure: 72H TEAD Proliferation Assay.
The effect of TEAD inhibition on cell proliferation was assayed using Cell Titer Glo (CTG) 2.0 to measure response in mesothelioma cell lines NCI-H226 (ATCC, #CRL-5826) and NCI-H28 (ATCC, #CRL-5820).
The 72H TEAD Proliferation assay utilizes Cell Titer-Glo 2.0 (Promega, #G9243) to measure the proliferation of cells in the presence or absence of compound. Cell Titer-Glo 2.0 determines the amount of viable cells by quantifying ATP (an indication of metabolically active cells). It utilizes the conversion of Luciferin to Oxyluciferin and a luminescent signal with the use of ATP to report the quantity of viable cells in culture. Within cells that are continually growing, ATP is being synthesized to meet their metabolic demands, meanwhile the opposite is true for cells that are dying or slowing down their proliferation and either no longer using ATP or are using less, respectively. The NF2-deficient NCI-H226 has been genetically validated as a cell line that is sensitive to TEAD inhibition. The NF2-wild type NCI-H28 has been genetically validated as a cell line that is not sensitive to TEAD inhibition and grows independently of TEAD activity.
Compounds were screened against the responsive NCI-H226 cell line to assess the compounds' ability to inhibit TEAD and cell growth. Compounds were also screened against the non-responsive NCI-H28 cell line to ascertain whether the inhibition of cell growth was due to inhibition of the target TEAD or whether the inhibition was due to off-target cytotoxicity.
• 1) Assay ready plates (ARPs) were prepared by Echo acoustic liquid handler. […] After CTG addition, plates were placed on shaker at 800 RPM for 15 minutes at room temperature and kept in the dark. Luminescence was measured using EnVision multilabel plate reader with ultra-sensitive detection module. • 9) Data Analysis: First background luminescence (no CTG wells) was subtracted from luminescence reading of all wells, then TO luminescence was subtracted from T72 luminescence. To compare anti-proliferative effect of compounds, GI50 was obtained by fitting dose response curves with nonlinear regression curve fit.

GI50 | SMILES
1000 to 5000 nM | CC(C)(C)c1ccc(-c2nc3cc(S(C)(=N)=O)ccc3n3cccc23)cc1 (single isomer, unassigned) [I-208, (4-(4-(tert-Butyl)phenyl)pyrrolo[1,2-a]quinoxalin-7-yl)(imino)(methyl)-16-sulfanone]

same assay, conditions: Homo sapiens, NCI-H226, 72 h, CTG 2.0, cell line not given (NCI-H226 responsive, NCI-H28 non-responsive)

GI50 | SMILES
≤ 1000 nM | CCOc1cc(-c2ccc(C(F)(F)F)cc2)nc2cc(C(=O)O)ccc12 [I-393, 4-ethoxy-2-(4-(trifluoromethyl)phenyl)quinoline-7-carboxylic acid]
≤ 1000 nM | C=CC(=O)NC(C)c1cn2ccnc2c(-c2ccc(C(F)(F)F)cc2)n1 (stereo not shown) [I-172, N-(1-(8-(4-(trifluoromethyl)phenyl)imidazo[1,2-a]pyrazin-6-yl)ethyl)acrylamide]
≤ 1000 nM | FC(F)(F)c1ccc(-c2nc(C3CC(Br)=NO3)cn3ccnc23)cc1 (stereo not shown) [I-176, 3-bromo-5-(8-(4-(trifluoromethyl)phenyl)imidazo[1,2-a]pyrazin-6-yl)-4,5-dihydroisoxazole]
5000 to 10000 nM | C=CC(=O)NCc1nc(-c2ccc(C(F)(F)F)cc2)c2[nH]ccc2n1 [I-450, N-((4-(4-(trifluoromethyl)phenyl)-5H-pyrrolo[3,2-d]pyrimidin-2-yl)methyl)acrylamide]
≤ 1000 nM | C=C(F)C(=O)NCc1cc2ccccc2c(-c2ccc(C(C)(C)C)cc2)n1 [I-215, N-((1-(4-(tert-butyl)phenyl)isoquinolin-3-yl)methyl)-2-fluoroacrylamide]
≤ 1000 nM | C[C@H](CO)NC(=O)c1ccc2c(C3CC3)cc(-c3ccc(C(F)(F)F)cc3)nc2c1 [I-386, (R)-4-cyclopropyl-N-(1-hydroxypropan-2-yl)-2-(4-(trifluoromethyl)phenyl)quinoline-7-carboxamide]
≤ 1000 nM | CC[C@H](CO)NC(=O)c1ccc2c(OC)cc(-c3ccc(C(F)(F)F)cc3C)nc2c1 [I-336, (R)—N-(1-hydroxybutan-2-yl)-4-methoxy-2-(2-methyl-4-(trifluoromethyl)phenyl)quinoline-7-carboxamide]
1000 to 5000 nM | O=C(O)c1ccc2ccc(-c3ccc(C(F)(F)F)cc3)nc2c1 [I-403, 2-(4-(trifluoromethyl)phenyl)quinoline-7-carboxylic acid]
1000 to 5000 nM | O=C(O)c1ccc2c(c1)nc(-c1ccc(C(F)(F)F)cc1F)c1nccn12 [I-60, 4-(2-Fluoro-4-(trifluoromethyl)phenyl)imidazo[1,2-a]quinoxaline-7-carboxylic acid]
≤ 1000 nM | O=C(/C=C/CF)NCc1cn2ccnc2c(-c2ccc(C(F)(F)F)cc2F)n1 [I-291, (E)-4-fluoro-N-((8-(2-fluoro-4-(trifluoromethyl)phenyl)imidazo[1,2-a]pyrazin-6-yl)methyl)but-2-enamide]
≤ 1000 nM | C=CC(=O)Nc1ccc2c(c1)nc(-c1ccc(C(F)(F)F)cn1)c1nccn12 [I-312, N-(4-(5-(trifluoromethyl)pyridin-2-yl)imidazo[1,2-a]quinoxalin-7-yl)acrylamide]
> 10000 nM | O=C(O)c1ccc2c(c1)nc(OCc1ccc(C(F)(F)F)cc1)c1cccn12 [I-130, 4-((4-(Trifluoromethyl)benzyl)oxy)pyrrolo[1,2-a]quinoxaline-7-carboxylic acid]
5000 to 10000 nM | Cc1cc(-c2ccc(C(F)(F)F)cc2)nc2cc(-c3nnn[nH]3)ccc12 [I-254, 4-Methyl-7-(1H-tetrazol-5-yl)-2-(4-(trifluoromethyl)phenyl)quinoline]
≤ 1000 nM | C=CC(=O)NCc1cn2c(F)cnc2c(-c2ccc(C(F)(F)F)cc2)n1 [I-235, N-((3-fluoro-8-(4-(trifluoromethyl)phenyl)imidazo[1,2-a]pyrazin-6-yl)methyl)acrylamide]
≤ 1000 nM | C=CC(=O)Nc1cn2cccc2c(-c2ccc(C(F)(F)F)cc2)n1 [I-96, N-(1-(4-(trifluoromethyl)phenyl)pyrrolo[1,2-a]pyrazin-3-yl)acrylamide]
1000 to 5000 nM | O=C(O)c1cnc2c(c1)nc(N1CCC3(CC1)CC3)c1cccn12 [I-138, 6-(6-Azaspiro[2.5]octan-6-yl)pyrido[3,2-e]pyrrolo[1,2-a]pyrazine-3-carboxylic acid]
≤ 1000 nM | C=CC(=O)NCc1cc2nccn2c(-c2ccc(C(F)(F)F)cc2)n1 [I-315, N-((5-(4-(trifluoromethyl)phenyl)imidazo[1,2-c]pyrimidin-7-yl)methyl)acrylamide]
> 10000 nM | O=C(O)c1ccc2c(c1)nc(N1CCC(c3ccccc3)CC1)c1cccn12 [I-13, 4-(4-Phenylpiperidin-1-yl)pyrrolo[1,2-a]quinoxaline-7-carboxylic acid]

GI50 | SMILES
1000 to 5000 nM | Cc1cnc(-c2nc3cc(C(=O)O)ccc3n3cccc23)nc1 [I-129, 4-(5-Methylpyrimidin-2-yl)pyrrolo[1,2-a]quinoxaline-7-carboxylic acid]
1000 to 5000 nM | O=C(O)c1ccc2c(c1)nc(N1CCC3(CCCC3)C1)c1cccn12 [I-9, 4-(2-Azaspiro[4.4]nonan-2-yl)pyrrolo[1,2-a]quinoxaline-7-carboxylic acid]
≤ 1000 nM | C=CC(=O)NCc1cc(-c2ccc(C(F)(F)F)cc2)nn2ccnc12 [I-290, N-((6-(4-(trifluoromethyl)phenyl)imidazo[1,2-b]pyridazin-8-yl)methyl)acrylamide]
> 10000 nM | CC(C)(C)c1ccc(-n2ccc3cc(C(=O)O)ccc32)cc1 [I-101, 1-(4-(tert-Butyl)phenyl)-1H-indole-5-carboxylic acid]
1000 to 5000 nM | CN(C)CCNC(=O)c1ccc2c(c1)nc(-c1ccc(C(C)(C)C)cc1)c1cccn12 [I-188, 4-(4-(tert-butyl)phenyl)-N-(2-(dimethylamino)ethyl)pyrrolo[1,2-a]quinoxaline-7-carboxamide]
1000 to 5000 nM | O=C(O)c1ccc2c(c1)nc(-c1ccc(C(F)(F)F)cc1Cl)c1cccn12 [I-53, 4-(2-Chloro-4-(trifluoromethyl)phenyl)pyrrolo[1,2-a]quinoxaline-7-carboxylic acid]
≤ 1000 nM | C=CC(=O)NCC(=C)c1cn2ccnc2c(-c2ccc(C(F)(F)F)cc2)n1 [I-250, N-(2-(8-(4-(trifluoromethyl)phenyl)imidazo[1,2-a]pyrazin-6-yl)allyl)acrylamide]
≤ 1000 nM | O=C(/C=C/CF)NCc1cn2c(F)cnc2c(-c2ccc(C(F)(F)F)cc2)n1 [I-249, (E)-4-Fluoro-N-((3-fluoro-8-(4-(trifluoromethyl)phenyl)imidazo[1,2-a]pyrazin-6-yl)methyl)but-2-enamide]
1000 to 5000 nM | COCC(C)CC(=O)N1CCc2c(cccc2-c2ccc(C(F)(F)F)cc2)C1 (stereo not shown) [I-137, 4-Methoxy-3-methyl-1-(5-(4-(trifluoromethyl)phenyl)-3,4-dihydroisoquinolin-2(1H)-yl)butan-1-one]
≤ 1000 nM | C=CC(=O)NC(C)(CO)c1cn2ccnc2c(-c2ccc(C(F)(F)F)cc2)n1 (stereo not shown) [I-251, N-(1-hydroxy-2-(8-(4-(trifluoromethyl)phenyl)imidazo[1,2-a]pyrazin-6-yl)propan-2-yl)acrylamide]
1000 to 5000 nM | COCC(C)OC(=O)N1CCc2c(cccc2-c2ccc(C(F)(F)F)cc2)C1 (stereo not shown) [I-79, 1-Methoxypropan-2-yl 5-(4-(trifluoromethyl)phenyl)-3,4-dihydroisoquinoline-2(1H)-carboxylate]
> 10000 nM | O=C(O)c1ccc2c(c1)nc(N1CCC3(CC1)CC3)c1nccn12 [I-56, 4-(6-Azaspiro[2.5]octan-6-yl)imidazo[1,2-a]quinoxaline-7-carboxylic acid]
1000 to 5000 nM | C=CC(=O)NCc1cn2cnnc2c(-c2ccc(C(F)(F)F)cc2)n1 [I-317, N-((8-(4-(trifluoromethyl)phenyl)-[1,2,4]triazolo[4,3-a]pyrazin-6-yl)methyl)acrylamide]
≤ 1000 nM | O=C(O)c1ccc2c(c1)nc(-c1ccc(OC(F)(F)F)cc1)c1cccn12 [I-192, 4-(4-(trifluoromethoxy)phenyl)pyrrolo[1,2-a]quinoxaline-7-carboxylic acid]
1000 to 5000 nM | CC(C)(C)c1ccc(-c2nc3cc(C(=O)O)cc(CO)c3n3cccc23)cc1 [I-279, 4-(4-(tert-butyl)phenyl)-9-(hydroxymethyl)pyrrolo[1,2-a]quinoxaline-7-carboxylic acid]
≤ 1000 nM | COc1cc(-c2ccc(C(F)(F)F)cc2)nc2cc(C(=O)N[C@H](C)CO)ccc12 [I-324, (R)—N-(1-hydroxypropan-2-yl)-4-methoxy-2-(4-(trifluoromethyl)phenyl)quinoline-7-carboxamide]
≤ 1000 nM | C=CC(=O)NCc1cc2cccc(F)c2c(-c2ccc(C(F)(F)F)cc2)n1 [I-289, N-((8-fluoro-1-(4-(trifluoromethyl)phenyl)isoquinolin-3-yl)methyl)acrylamide]
1000 to 5000 nM | CC(c1ccc(-c2nc3cc(C(=O)O)ccc3n3cccc23)cc1)C(F)(F)F (stereo not shown) [I-195, 4-(4-(1,1,1-trifluoropropan-2-yl)phenyl)pyrrolo[1,2-a]quinoxaline-7-carboxylic acid]
